Experiment [1] deals with CAL-51. Put plainly: normalised response (% of control), CellTiter-Glo; higher = more viable cells (100 = DMSO, 0 = benzethonium chloride kill control). The note with it: incubation time: 72 h. In short, it runs like this:
(§1)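 Values are normalised signals, each belonging to one concentration of the series. Breast cancer cells (20 µl suspension) were seeded into 384-well plates with compound at 5 concentrations in 10-fold steps over a compound-specific 10,000-fold range and incubated 72 h. Readouts were CellTox Green fluorescence (485/520 nm), then CellTiter-Glo luminescence after 10 min at room temperature, with each plate set to 0.1 % DMSO as 100 and a positive kill control as 0.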
(In general: In ATP-based viability assays light output follows the ATP content of the culture.)

For experiment [2], the system named is MDA-MB-231. The experiment is described as above. The note with it: incubation time: 72 h. In short, it runs like this: as §1
In experiment [3] the test system is MFM-223. The description is as above. The note with it: incubation time: 72 h. In short, it runs like this: as §1
Experiment [4] deals with CAL-148. Particulars: 72 h. In short, it runs like this: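 Seeding of breast cancer cell lines (20 µl suspension) was done into 384-well plates pre-loaded with compound at 5 concentrations, 10-fold apart, covering a compound-specific 10,000-fold range. The plates were incubated for 72 h, read for CellTox Green fluorescence (485/520 nm), and then read for CellTiter-Glo luminescence after 10 min at room temperature. Every plate was normalised to 0.1 % DMSO and a positive kill control. Curve fitting gave the EC50, censored at the top concentration.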

For experiment [5], the system named is BT-474. Particulars: 72 h. In short, it runs like this:
(§2)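 Viability of breast cancer cell lines was measured with CellTiter-Blue after 72 h of incubation on compound-loaded 384-well plates. Cells were seeded in 20 µl onto compound dissolved in 5 µl medium, and 2.5 µl reagent was added for 2 h at 37 °C before reading at 560/590 nm. EC50 was fitted from percent-inhibition dose-response data censored at the highest concentration, normalised per plate to vehicle and a positive kill control, with zero drug sensitivity score rows dropped.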

Experiment [6] concerns HCC1937. The note with it: 72 h. In short, it runs like this:
as §2

Experiment [7] has as its system Hs578T. The note with it: 72 h. In short, it runs like this:
as §2

The subject of experiment [8] is MDA-MB-231. Particulars: 72 h. In short, it runs like this: as §2
Experiment [9] has as its system MDA-MB-468. The note with it: 72 h. In short, it runs like this:
as §2

The next experiment deals with SK-BR-3. Particulars: 72 h. In short, it runs like this:
as §2

Experiment [10] concerns CAL-148. Particulars: 72 h. As for the experimental part:
(§3)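 Drug sensitivity and resistance testing (DSRT) of breast cancer cell lines in 384-well plates, 5 concentrations in 10-fold dilutions over a compound-specific 10,000-fold range. After 72 h, cytotoxicity was read by CellTox Green fluorescence and viability by CellTiter-Glo luminescence (multiplexed), normalised to DMSO and benzethonium chloride controls. EC50 is the inflection point of the fitted dose-response curve (bottom asymptote free, so it can be relative for partial curves) and is censored at the highest tested concentration. Rows with DSS 0 (no meaningful response) were excluded.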
This is another data set of the same source.

For experiment [11], the system named is CAL-51. Particulars: 72 h. The method, then:
as §3

The next experiment relates to BT-549. Particulars: 72 h. As for the experimental part: as §3
Experiment [12] relates to HCC1143. Particulars: 72 h. The method, then: as §3
A further experiment deals with HDQ-P1. The note with it: 72 h. The method, then: as §3
Experiment [13] concerns BT-474. The experiment in a line: normalised response (% of control), CellTiter-Glo; higher = more viable cells (100 = DMSO, 0 = benzethonium chloride kill control). Particulars: incubation time: 72 h. In short, it runs like this: as §1
For experiment [14], the system named is CAL-148. Described as above. Particulars: incubation time: 72 h. In short, it runs like this:
as §1

The subject of experiment [15] is HCC1143. The description is as above. The note with it: incubation time: 72 h. In short, it runs like this: as §1
The subject of another experiment is HCC1599. Described as above. The note with it: incubation time: 72 h. In short, it runs like this: as §1
Experiment [16] has as its system HCC1937. The experiment is described as above. The note with it: incubation time: 72 h. In short, it runs like this:
as §1

Experiment [17] deals with Hs578T. The experiment is described as above. Particulars: incubation time: 72 h. In short, it runs like this: as §1
Experiment [18] has as its system MDA-MB-231. Described as above. Particulars: incubation time: 72 h. In short, it runs like this: as §1
This is another data set of the same source.

The test system of another experiment is MDA-MB-453. Described as above. Particulars: incubation time: 72 h. In short, it runs like this: as §1
For experiment [19], the system named is MDA-MB-468. The experiment is described as above. Particulars: incubation time: 72 h. In short, it runs like this: as §1
The subject of experiment [20] is MFM-223. The description is as above. The note with it: incubation time: 72 h. In short, it runs like this: as §1
The source holds these as a separate data set.

A value given as a limit tells only on which side of the number the result lay.

In the case of `C[C@]12O[C@H](C[C@]1(O)CO)n1c3ccccc3c3c4c(c5c6ccccc6n2c5c31)CNC4=O` [Lestaurtinib] (100 nM), the values for the normalised response in the experiment on CAL-51 [1], in the experiment on MDA-MB-231 [2] and in the experiment with MFM-223 [3] were 83.8%, 92.1% and 80.9%, respectively.
As for `O=C1c2c(O)ccc(O)c2C(=O)c2c(NCCNCCO)ccc(NCCNCCO)c21` [Mitoxantrone], in the experiment with CAL-148 [4], the “EC50, CellTiter-Glo” value is 403 nM. For the same compound, the “EC50, CellTiter-Blue viability” value was 106 nM in the experiment on BT-474 [5]; 2.13 nM in the experiment with HCC1937 [6]; 532 nM in the experiment with Hs578T [7]; 51.7 nM in the experiment with MDA-MB-231 [8]; 74.8 nM in the experiment with MDA-MB-468 [9]; 34.5 nM in the experiment on SK-BR-3. The “EC50, CellTox Green” value with CAL-148 [10] turned out to be 124 nM; in the experiment on CAL-51 [11] it was 185 nM.
As for `O=C1c2c(O)ccc(O)c2C(=O)c2c(NCCNCCO)ccc(NCCNCCO)c21` [Mitoxantrone] (100 nM), the normalised response in the experiment on CAL-51 [1] came to 93.8%; in the experiment with MDA-MB-231 [2], 103%; in the experiment on MFM-223 [3] it was 99.7%.
For `Nc1ccccc1NC(=O)c1ccc(CNc2nccc(-c3cccnc3)n2)cc1` [Mocetinostat] (1000 nM) the same measures were 62.9%, 77.7% and 77%.
As to `COc1nc(N)nc2c1ncn2[C@@H]1O[C@H](CO)[C@@H](O)[C@@H]1O` [Nelarabine], the “EC50, CellTox Green” value in the experiment with BT-549 was greater than 10000 nM.
As for `COc1nc(N)nc2c1ncn2[C@@H]1O[C@H](CO)[C@@H](O)[C@@H]1O` [Nelarabine] (1000 nM), the normalised response turned out to be 88.7% with CAL-51 [1], 93.9% in the experiment on MDA-MB-231 [2] and 88.3% with MFM-223 [3].
For the compound `Cc1ccc(Nc2nccc(N(C)c3ccc4c(C)n(C)nc4c3)n2)cc1S(N)(=O)=O` [Pazopanib], the “EC50, CellTox Green” value with HCC1143 [12] is greater than 10000 nM.
For `Cc1ccc(Nc2nccc(N(C)c3ccc4c(C)n(C)nc4c3)n2)cc1S(N)(=O)=O` [Pazopanib] (1000 nM), the values for the normalised response in the experiment on CAL-51 [1], in the experiment on MDA-MB-231 [2] and in the experiment on MFM-223 [3] were 104%, 106% and 66.6%, respectively.
For `O=C(CCBr)N1CCN(C(=O)CCBr)CC1` [Pipobroman] (1000 nM) the same measures were 88.8%, 99.5% and 104%.
As to `C[C@]12C=CC(=O)C=C1CC[C@@H]1[C@@H]2[C@@H](O)C[C@@]2(C)[C@H]1CC[C@]2(O)C(=O)CO` [Prednisolone], in the experiment on HDQ-P1, the “EC50, CellTox Green” value worked out at 7320 nM.
Turning to `C[C@]12C=CC(=O)C=C1CC[C@@H]1[C@@H]2[C@@H](O)C[C@@]2(C)[C@H]1CC[C@]2(O)C(=O)CO` [Prednisolone] (1000 nM), the values for the normalised response in the experiment on CAL-51 [1], with MDA-MB-231 [2] and in the experiment with MFM-223 [3] were 120%, 154% and 106%, respectively.
For `CNC(=O)c1cc(Oc2ccc(NC(=O)Nc3ccc(Cl)c(C(F)(F)F)c3)cc2)ccn1` [Sorafenib] (100 nM) the same measures were 83.9%, 104% and 104%.
On the same counts, the results for `CCN(CC)CCNC(=O)c1c(C)[nH]c(/C=C2\C(=O)Nc3ccc(F)cc32)c1C` [Sunitinib] (100 nM) are 88.4%, 109% and 107%.
For the compound `CC[C@@]1(O)C(=O)OCc2c1cc1n(c2=O)Cc2cc3c(CN(C)C)c(O)ccc3nc2-1` [Topotecan] (100 nM), the normalised response turned out to be 91.9% with BT-474 [13]; 62.4% with CAL-148 [14]; 92.9% in the experiment with HCC1143 [15]; 65.5% in the experiment on HCC1599; 95.7% with HCC1937 [16]; 101% with Hs578T [17]. In addition, the normalised response in the experiment on MDA-MB-231 [18] came out at 92.8%; in the experiment with MDA-MB-453 it was 133%; with MDA-MB-468 [19], 62.5%; with MFM-223 [20], 97.4%.
`CC[C@@]1(O)C(=O)OCc2c1cc1n(c2=O)Cc2cc3c(CN(C)C)c(O)ccc3nc2-1` [Topotecan] (1000 nM): the normalised response with CAL-51 [1] stood at 48%; in the experiment with MDA-MB-231 [2] it was 81.6%; in the experiment with MFM-223 [3], 91.4%.

Values taken from the supplement of paper PMC4862054.
